Results on four compounds are retold here after patent US20260335472A1, “MULTIFUNCTIONAL COMPOUND CORE FOR ACTIVE AGENTS AND USES THEREOF” (THE UNIVERSITY OF NORTH CAROLINA AT CHAPEL HILL, priority 2023, published 2026).

For series [1], the system named is tumor. The series can be described thus: PET scan imaging, tumor uptake of bifunctional (Sar cage) core compound. The note with it: mouse, FIG. 5. The format is in vivo.
In the next series the test system is PC3-PSMA model. The series can be described thus: PET scan imaging, tumor uptake in rodents. The format is in vivo, mouse.
For series [2], the system named is tumor. Nature of the series: Imaging, tumor uptake in non-human primate models. The format is in vivo. The settings on record: non-human primate (NHP) models, times higher than PSMA-617. The protocol: (§1) Indeed, SGs uptake of ^64Cu-NOTA-UNC-PSMA2 is only 1/10th of ^64Cu-PSMA-617 at 24 h post-injection in the NHP study (FIG. 1, panel B).
The nature of series [3]: PET scan imaging, salivary gland uptake in non-human primate. It counts as in vivo. The settings on record: 24 hours post injection, relative to 64Cu-PSMA-617, FIG. 1 panel B. The protocol:
as §1

For series [4], the system named is tumor. Nature of the series: PET scan imaging of 68Ga-PSMA-617 tumor uptake. The note with it: rodent models, PET scan image of a mouse, FIG. 2 panel A. The format is in vivo.
A short description of series [5]: SPECT/CT imaging, SG uptake in rodent models. The format is in vivo.
Series [6] in a line: SPECT/CT imaging, gland uptake in a human subject. The format is in vivo.

As to `N#CC1CCCN1C(=O)CNC(=O)c1ccnc2ccc(OCCCN3CCN(C(=O)CCOCCOCCNC(=O)NC45CNCCNCC(NC(=O)NCCOCCOCCC(=O)N6CCN(CCCOc7ccc8nccc(C(=O)NCC(=O)N9CCCC9C#N)c8c7)CC6)(CNCCNC4)CNCCNC5)CC3)cc12` (stereo not shown), in the series with tumor [1], the “uptake into a tumor (in words)” value is “Uptake of this compound into a tumor”.
As to `O=C(O)CC[C@H](NC(=O)N[C@@H](CCCCNC(=O)[C@H](Cc1ccc2ccccc2c1)NC(=O)C1CCC(CNC(=O)CSCCS(=O)(=O)CCOCCn2c(=O)n(CCOCCS(=O)(=O)CCSCC(=O)NC[C@H]3CC[C@H](C(=O)N[C@@H](Cc4ccc5ccccc5c4)C(=O)NCCCC[C@H](NC(=O)N[C@@H](CCC(=O)O)C(=O)O)C(=O)O)CC3)c(=O)n(CCOCCS(=O)(=O)CCSCC(=O)Nc3ccc(CC4CN(CC(=O)O)CCN(CC(=O)O)CCN4CC(=O)O)cc3)c2=O)CC1)C(=O)O)C(=O)O` (stereo partly shown) [^64Cu-NOTA-UNC-PSMA2, metal not drawn], the “distribution (in words)” value with PC3-PSMA model (24 and 48 h post injection, FIG. 1 panel A) is reported as “persistent as only the tumor demonstrated prominent compound uptake”. Besides, in the series with PC3-PSMA model (mouse, PC3-PSMA model, PET scan image, FIG. 1 panel A), the “tumor uptake (in words)” value was “high and persistent tumor uptake”. The “tumor uptake compared to PSMA-617” value in the series with PC3-PSMA model (rodent models, times higher than PSMA-617) was 2-3 times; with tumor [2] it was 2-3 times. Further, the “SG uptake relative to 64Cu-PSMA-617” value in series [3] was 1/10.
On to `O=C(O)CC[C@H](NC(=O)N[C@@H](CCCCNC(=O)[C@H](Cc1ccc2ccccc2c1)NC(=O)[C@H]1CC[C@H](CNC(=O)CN2CCN(CC(=O)O)CCN(CC(=O)O)CCN(CC(=O)O)CC2)CC1)C(=O)O)C(=O)O.[Ga+3]` [^68Ga-PSMA-617], for which the “tumor uptake profile (in words)” value with tumor [4] is listed as “clean tumor uptake profile”.
In the case of `O=C(O)CC[C@H](NC(=O)N[C@@H](CCCCNC(=O)[C@H](Cc1ccc2ccccc2c1)NC(=O)[C@H]1CC[C@H](CNC(=O)CN2CCN(CC(=O)O)CCN(CC(=O)O)CCN(CC(=O)O)CC2)CC1)C(=O)O)C(=O)O.[Lu+3]` [^177Lu-PSMA-617], the “SG uptake (in words)” value in series [5] and in series [6] (SPECT/CT imaging) was “prominent SG uptake” each time. Besides, the “glands uptake (in words)” value in series [6] (SPECT/CT, 24 hours post injection, FIG. 2 panel B) is “high glands uptake”.
